The numbers were not newly measured in article PMC10814857, “Functional Classification and Interaction Selectivity Landscape of the Human SH3 Domain Superfamily” (Cells, 2024), which cites them from elsewhere.

Read-outs that look alike come from different tables or passages of the source. Some results are limits rather than exact numbers.

In one data set the target is SNX9 SH3 domain. The note with it: cited from earlier work.
A further data set has as its target LCK SH3 domain. The note with it: FL, Table S4, ref [74]; cited from earlier work.
A further data set concerns the target CRK-1 SH3 domain. Also noted: method as in ref [70] (a number printed in a supplementary file, which may have a reference list of its own: not looked up in the article's list). The note with it: CRK-1, ITC, Table S4; ref [70]; cited from earlier work.
The target of another data set is PACSIN3 SH3 domain. Also noted: method as in ref [61] (a number printed in a supplementary file, which may have a reference list of its own: not looked up in the article's list). The note with it: PACSIN3, HSQC, Table S4; ref [61]; cited from earlier work.
The next data set has as its target PACSIN2 SH3 domain. Also noted: method as in ref [61] (a number printed in a supplementary file, which may have a reference list of its own: not looked up in the article's list). The note with it: PACSIN2, HSQC, Table S4; ref [61]; cited from earlier work.
The target in the next data set is PACSIN1 SH3 domain. Details: method as in ref [61] (a number printed in a supplementary file, which may have a reference list of its own: not looked up in the article's list). The note with it: PACSIN1, HSQC, Table S4; ref [61]; cited from earlier work.
Another data set addresses EPS8L1 SH3 domain. Also noted: method as in ref [7] (a number printed in a supplementary file, which may have a reference list of its own: not looked up in the article's list). The note with it: EPS8L1, ITC, Table S4; ref [7]; cited from earlier work.
The next data set has as its target AMPH SH3 domain. The note with it: g-radiation, Table S4, ref [80]; cited from earlier work. Here is the method: (§1) page 6: […] […] […] PAK2 […] PXXXPR PXXXPR 1.05 ITC [34] TRSVI ITSN1-2 Synthetic […] Exceptional [W/F][R/W]xSx[A/ 53 ITC [29] peptide G][F/Y][L/V]xGP[ W/L] NCK1-2 N-WASP GP[…] … 147 HSQC [64] VA[…] 199 PLCG1 SOS1 AAPV[…] … 0.20mM SPR [75] AADS[…] 0.40mM AAES[…] 0.70mM AAIA[…] 0.28mM BAIAP2L1 EspFUR45 IPP[…] … 0.5 nM ITC [76] (IRTKS) 9 SORBS2- Synthetic […] Exceptional XRXGXAYLXYVX 38 ITC [29] 1 peptide Synthetic RL[…](L/P) ...

Data set [1] deals with FYN SH3 domain. Also noted: method as in ref [20] (a number printed in a supplementary file, which may have a reference list of its own: not looked up in the article's list). The note with it: ITC, Table S4, ref [20]; cited from earlier work.
The target of data set [2] is FYN SH3 domain. Also noted: method as in ref [20] (a number printed in a supplementary file, which may have a reference list of its own: not looked up in the article's list). The note with it: CD, Table S4, ref [20]; cited from earlier work.
Data set [3] deals with FYN SH3 domain. Also noted: method as in ref [20] (a number printed in a supplementary file, which may have a reference list of its own: not looked up in the article's list). The note with it: NMR, Table S4, ref [20]; cited from earlier work.
For the next data set, the target named is p85A SH3 domain. Also noted: method as in ref [62] (a number printed in a supplementary file, which may have a reference list of its own: not looked up in the article's list). The note with it: FL, Table S4, ref [62]; cited from earlier work.
Another data set concerns the target NCK1-3 SH3 domain. The note with it: NCK1-3, HSQC, Table S4; ref [64]; cited from earlier work. Here is the method: (§2) page 6: […][…] […] PAK2 […] PXXXPR PXXXPR 1.05 ITC [34] TRSVI ITSN1-2 Synthetic […] Exceptional [W/F][R/W]xSx[A/ 53 ITC [29] peptide G][F/Y][L/V]xGP[ W/L] NCK1-2 N-WASP GP[…] … 147 HSQC [64] VA[…] 199 PLCG1 SOS1 AAPV[…] … 0.20mM SPR [75] AADS[…] 0.40mM AAES[…] 0.70mM AAIA[…] 0.28mM BAIAP2L1 EspFUR45 IPP[…] … 0.5 nM ITC [76] (IRTKS) 9 SORBS2- Synthetic […] Exceptional XRXGXAYLXYVX 38 ITC [29] 1 peptide Synthetic RL[…](L/P) ...

In a further data set the target is NCK1-2 SH3 domain. The note with it: NCK1-2, HSQC, Table S4; ref [64]; cited from earlier work. Here is the method:
as §2

In a further data set the target is NCK1-1 SH3 domain. The note with it: NCK1-1, HSQC, Table S4; ref [64]; cited from earlier work.
For the next data set, the target named is CD2AP-1 (CMS) SH3 domain. The note with it: SPR, Table S4, ref [50, 82]; cited from earlier work. An excerpt: page 7: […] E CD2AP-1 CD2 […] PX(P/A)XXR PXXXPR 100 SPR [50, (CMS) G 82] SH3KBP1- 1 (CIN85) 1 The underlined residues in the second column represent motifs associated with the published consensus PRMs, while the residues highlighted in green represent the proposed consensus PRM identified in the current study. 2 CD: Circular Dichroism Spectroscopy FL: fluorescence-based titrations; HSQC: Heteronuclear Single Quantum Coherence; ITC: Isothermal titration calorimetry; MST: microscale thermophoresis 7

Data set [4] has as its target BAIAP2L1 (IRTKS) SH3 domain. The note with it: ITC, Table S4, ref [76]; cited from earlier work. Here is the method: as §2
Another data set has as its target STAM2 SH3 domain. The note with it: STAM2, FL, Table S4; ref [52]; cited from earlier work. The method, then:
as §1

Data set [5] has as its target SH3PXD2B-1/2 SH3 domains. Details: method as in ref [68] (a number printed in a supplementary file, which may have a reference list of its own: not looked up in the article's list). The note with it: SH3PXD2B-1/2, MST, Table S4; ref [68]; cited from earlier work.
The target of data set [6] is SH3PXD2B-1/2 SH3 domains. Also noted: method as in ref [68] (a number printed in a supplementary file, which may have a reference list of its own: not looked up in the article's list). The note with it: SH3PXD2B-1/2, FL, Table S4; ref [68]; cited from earlier work.
The target in another data set is SPTAN1 SH3 domain. Also noted: method as in ref [63] (a number printed in a supplementary file, which may have a reference list of its own: not looked up in the article's list). The note with it: SPTAN1, FL, Table S4; ref [63]; cited from earlier work.
For the next data set, the target named is STAC2 SH3 domain. The note with it: STAC2, ITC, Table S4; ref [59]; cited from earlier work. Here is the method: as §1
A further data set addresses STAC1 SH3 domain. The note with it: STAC1, ITC, Table S4; ref [59]; cited from earlier work. Here is the method:
as §1

The target in a further data set is ITSN1-2 SH3 domain. The note with it: ITSN1-2, ITC, Table S4; ref [29]; cited from earlier work. The method, then:
as §1

In the next data set the target is HCK SH3 domain. The note with it: SPR, Table S4, ref [72]; cited from earlier work.
In data set [7] the target is FYN SH3 domain. The note with it: SPR, Table S4, ref [72]; cited from earlier work.

Consider AERLIPRRPAPPVPVPARIPSPR, for which the Kd on SNX9 SH3 domain is 0.3 µM.

As for “ATLDPGMPTPPLPPRPANLG [published Tip peptide]”, at LCK SH3 domain, the Kd was 16.8 µM.

With “DNSPPPALPPKKRQSAPS [published C3G peptide]”, the Kd on CRK-1 SH3 domain is approximately 2 µM.

For “TKGPAPNPPPVLKV [published TRPV4 peptide]”, the Kd was 68.6 µM at PACSIN3 SH3 domain, 12.7 µM at PACSIN2 SH3 domain and 51.6 µM on PACSIN1 SH3 domain.

Regarding PPVPNPDYEPIR [published CD3ε peptide], the equilibrium dissociation constant (Kd) at EPS8L1 SH3 domain was 24 µM.

For PSRPNR [published Dynamin-I peptide], the Kd on AMPH SH3 domain was 0.19 µM.

On to PPRPLPVAPGSSKT [published peptide P2L], for which the dissociation constant Kd at FYN SH3 domain [1] was 16 µM; on FYN SH3 domain [2] it was 28 µM; on FYN SH3 domain [3], 50 µM.

With “RKLPPRPSK [published synthetic peptide (p85A ligand)]”, the Kd at p85A SH3 domain is 9.1 µM.

Regarding VAVPPPPPNRMY [published N-WASP peptide], the results for the Kd at NCK1-3 SH3 domain and at NCK1-2 SH3 domain were 1 µM and 199 µM, respectively.

Take GPPPPPARGRGA [published N-WASP peptide]: the Kd on NCK1-2 SH3 domain is 147 µM; at NCK1-1 SH3 domain, more than 1000 µM.

Take “QKGPPLPRPRVQPKPPHG [published CD2 peptide]”: the Kd on CD2AP-1 (CMS) SH3 domain is 100 µM.

As to “IPPAPNWPAPTPP [published peptide EspFUR45]”, the dissociation constant (Kd) in data set [4] was 0.0005 µM.

Consider TPMVNRENKPP [published UBPY peptide], for which the Kd on STAM2 SH3 domain is 27 µM.

In the case of “GSHMGDAKQRSPKMRQRPPPRRDMTIPRGLNLPKPPIPPQVE [published SH3PXD2B peptide]”, the results for the Kd on SH3PXD2B-1/2 SH3 domains [5] and on SH3PXD2B-1/2 SH3 domains [6] were 15 µM and 11 µM, respectively.

“ASYPPVPPP [published Peptide41 (SPTAN1 ligand)]”: at SPTAN1 SH3 domain, the Kd is 160 µM.

Regarding “EDEPEIPLSPRPRP [published CaV1.1 peptide]”, the dissociation constant (Kd) on STAC2 SH3 domain was 9.31 µM; at STAC1 SH3 domain, 3.92 µM.

For “WRDSSGYVMGPW [published synthetic peptide (ITSN1-2 ligand)]”, the dissociation constant (Kd) at ITSN1-2 SH3 domain is 53 µM.

On to PVRPQVPLRPMT [published Nef peptide], for which the figures for the dissociation constant Kd on HCK SH3 domain and on FYN SH3 domain [7] were 91 µM and 202 µM, respectively.
